# Measured values reported in patent publication US11660054B2, “Medical diagnostic and treatment systems and their methods of use” (Biogen MA Inc., priority 2016, dated 2023).
# Test system: β-amyloid neuritic plaque
# Experiment: Radiometer cap detection of head radiation signals after IV amyloid tracer, concurrent PET
# Format: in vivo, human
# Protocol: Tests were conducted using a series of radiometers positioned around subjects heads and a standard PET camera using the amyloid tracer ^18F-fluorbetapir in subjects with probable Alzheimer's disease (AD subjects) and healthy control volunteers (HC). ^18F-fluorbetapir is a radioactive diagnostic agent for positron emission tomography (PET) imaging of the brain to estimate β-amyloid neuritic plaque density in adult patients with cognitive impairment who are being evaluated for AD. PET imaging targeting β-amyloid neuritic plaque deposition has already begun playing a role in identifying individuals very early in the course of AD and monitoring progression of the disease over the course of the treatment with investigational therapeutics.
# During testing, ^18F-fluorbetpir was administered intravenously as a bolus injection followed by a saline flush. […] Each subject received a single injection of the radioligand with a dose of no more than 10 mCi in a maximum volume of 10 mL.
# The device included a cap fitted with up to 5 detectors at various 10-20 EEG positions which was placed on the subject's head. The subjects were asked to avoid any movements of the head and to remain immobilized as much as possible. Additional detectors were secured to one ankle and the chin to obtain an indirect measure of the activity in the blood, and to monitor activity in the head respectively. […] Detector specific count rates and total counts were measured continuously for up to 3 hours. The count rate and total counts were compared in the AD subjects and HC subjects to extrapolate qualitative and quantitative pattern differences. […]
# For processing purposes, detected radiation signals were decay corrected to the time of injection. The counts were recorded in 4 second intervals, which were then median filtered using a 2 minute window. […]
# To quantify this, a constrained bi-exponential model was fit to the 10-65 minute period of each of the detectors, as well as the sum of the brain signals (excluding the chin, ankle and tip top detectors). […]
structure (smiles),measurement,setting,value
CNc1ccc(/C=C/c2ccc(OCCOCCOCCF)nc2)cc1 [^18F-fluorbetapir],ankle detector signal after injection,"ankle detector, all subjects, IV bolus",steadily climbed
same,"alpha phase of bi-exponential fit, healthy versus AD subjects","bi-exponential fit of 10-65 minute period, alpha phase limited to 5-30 min half-life",faster alpha phase
same,initial washout of signal in healthy subjects versus AD subjects,"head detectors, healthy subjects",faster initial washout
